What was measured:
Format in all cases: in vivo
[1] = tested on: H. contortus susceptible (PF14) strain; assay: Efficacy of verapamil with or without ivermectin in jirds, susceptible strain; conditions: for % EFFICACY: SUSCEPTIBLE (PF14) strain in jirds, oral, VRP 20 mg/kg, IVM 0.024 mg/kg
Procedure: (§1) Jirds, which are fed on a standard commercial ration to which 0.02% hydrocortisone has been added 5 days prior to infection, are inoculated with 1000 exsheathed L3 H. contortus. On day 10 after inoculation, the jirds are treated with either water or various doses of moxidectin or ivermectin orally. Each treatment group contains 6 jirds. Probit analyses are used to estimate LD50 levels for each anthelmintic against each strain.
(§2) H. contortus. Verapamil is given concomitantly with ivermectin by the oral route. Table 3. DEM[…] H. contortus […] OR S[…] IN JIRDS (n = # per group)

[2] = tested on: H. contortus moxidectin-resistant (MOF14) strain; assay: Efficacy of verapamil with or without ivermectin in jirds, moxidectin resistant strain; conditions: for % EFFICACY: MOX-RESISTANT (MOF14) strain in jirds, oral, VRP 20 mg/kg, IVM 0.046 mg/kg
Procedure: as §1, §2

[3] = tested on: MOXIDECTIN-RESISTANT STRAIN OF H. contortus (MOF14); assay: Effect of verapamil on efficacy of moxidectin and ivermectin in jirds, moxidectin-resistant strain; conditions: for EFFICACY (%) / WORM COUNTS (MEAN ± S.E.): MOF14 in jirds, 7 jirds/group, oral, MOX 0.017 mg/kg, IVM 0.028 mg/kg, VRP 20 mg/kg
[4] = verapamil 20 mg/kg, resistant worms in jirds (Example 8)

| Molecule | % EFFICACY [1] [%] | % EFFICACY [2] [%] | EFFICACY (%) [3] [%] | WORM COUNTS (MEAN ± S.E.) [3] | effect on worm counts ([1]; verapamil alone, 20 to 80 mg/kg oral, jirds infected with susceptible or moxidectin resistant H. contortus) | effect of verapamil on the efficacy of ivermectin ([2]; verapamil 20 mg/kg, moxidectin resistant worms in jirds (Example 7)) | effect of verapamil on the efficacy of moxidectin [3, 4] | increase in efficacy when verapamil is coadministered with ivermectin [3, 4] |
| --- | --- | --- | --- | --- | --- | --- | --- | --- |
| 22,23-dihydroavermectin B1 [ivermectin] | 54 | 79 | 80 | 9 ± 1 |  |  |  |  |
| CO/N=C1\C[C@]2(C[C@@H]3C[C@@H](C/C=C(\C)C[C@@H](C)/C=C/C=C4\CO[C@@H]5[C@H](O)C(C)=C[C@@H](C(=O)O3)[C@]45O)O2)O[C@H](/C(C)=C/C(C)C)[C@H]1C [moxidectin, 23-(O-methyloxime)-LL-F28249α] |  |  | 70 | 14 ± 3 |  |  |  |  |
| COc1ccc(CCN(C)CCCC(C#N)(c2ccc(OC)c(OC)c2)C(C)C)cc1OC (centres unmarked) [verapamil] | 17 | -53 | -73 | 80 ± 9 | no significant effect on worm counts | significantly enhances the efficacy of ivermectin | significantly increases the efficacy of moxidectin | not significant |

From patent EP1832655A2, “Methods for detecting and reversing resistance to macrocyclic lactone compounds” (priority 1997, dated 1998)
